From patent US4353919A, “Analgesic and antipyretic pharmaceutical compositions containing a benzothiazol-2(3H)-one” (Dr. Karl Thomae Gesellschaft mit beschrankter Haftung, priority 1980, dated 1982)

Tests used:
Type in all cases: in vivo
heat pain of the mouse = assay: Effect on the heat sensitivity of the mouse (hot plate, 52° C.); settings: male Chbb:NMRI (SPF)-mice, oral (esophageal tube), dose increasing time of reaction by 100%
Experimental: The test performed according to a modification of the method described by CHEN and BECKMAN [Science, 113, 631 (1951)] in male Chbb:NMRI (SPF)-mice with an average weight of 20 grams.
The test substances were administered as trituration in 1% methyl cellulose (0.1 ml/10 gm of mouse) by means of an esophageal tube. Before treatment with the test substance, the animals were twice put on the hot plate at an interval of 30 minutes, whereby their individual times of reaction were measured. After treatment with a test substance, the times of reaction of the animals were again measured in an interval of 30 minutes.
From the average maximum increase of the time of reaction obtained after treatment with different doses, and after linear regression analysis according to LINDER, an ED100 dose with the confidence limits according to FIELLER was calculated. The ED100 dose is one which increased the time of reaction by 100%.

[1] = test system: body temperature of the rat; assay: Effect on the body temperature of the rat (antipyretic activity); settings: Chbb:THOM-rats, oral (esophageal tube), dose decreasing rectal body temperature by 1.5° C.
Experimental: The temperature-lowering activity, i.e. antipyretic activity, was tested by the observation of the temperature curve given by rectally measured body temperatures of partially immobilized Chbb:THOM-rats having body weights of between 125 and 150 grams. The body temperatures were measured by thermocouples inserted into rectums. The test substances were administered as a trituration in a 1% methyl cellulose in portions of 1.0 ml/100 gm of animal using an esophageal tube.
From the values for the average maximum decline of temperature, which were gained after the administration of the different doses of the test substance, and after a linear regression analysis according to LINDER, an ED-1.5° C. was calculated with the confidence limits according to FIELLER as the dose which decreases the body temperature by 1.5° C.

Acute toxicity in mice = settings: mouse, in vivo; Chbb:NMRI (SPF)-mice of both sexes, oral (esophageal tube), deaths within 14 days
Experimental: (§1) The acute toxicity was determined in Chbb:NMRI (SPF)-mice of both sexes, having an average body weight of 20 gm. The test compounds were administered as a trituration in 1% methyl cellulose (0.5 ml/10 gm of animal) by means of an esophageal tube. The calculation of the LD50 values was effected according to the method of LITCHFIELD and WILCOXON [J. Pharmacol. Exp. Ther. 96, 99 (1949)], based on the percentage of animals which died within 14 days after administration of different doses.

[2] = test system: inflammation pain of the rat; assay: Effect on the inflammation pain of the rat (Randall-Selitto, yeast-injected paw); settings: male Chbb:THOM-rats, oral (esophageal tube), dose raising pain threshold by 50% vs controls
Experimental: The test arrangement corresponded to that indicated by RANDALL-SELITTO [Arch. Int. Pharmacodyn. 111, 409 (1957)]. Male Chbb:THOM-rats having body weights of from 100 to 130 grams received a subplantar injection of 0.1 ml of a 5% suspension of yeast cells in 5.55% glucose solution in a rear paw. At 11/2 and 21/4 hours, respectively, after injection of the phlogistic, the animals received various doses of the test substance as a trituration in 1% methyl cellulose (1 ml/100 g of animal) through an esophageal tube. Control animals received corresponding volumes of the vehicle.
Ninety and forty-five minutes, respectively, after application of the test substance (that is, three hours after the subplantar injection of the yeast suspension), the threshold pain was determined in the rat in terms of the […] of bearing pressure on a paw, based on the weight of the animals.
From the pain threshold, measured according to the different doses of the test substance, and with the linear regression analysis according to LINDER [Statistische Methoden, 4th ed., pp. 148-162, Birkhauser, Basel, 1964], and ED50 dose with the confidence limits according to FIELLER [Quart. J. Pharm. Pharmacol., 17, 117 (1944)] was determined. The ED50 dose is one in which the pain threshold rises by 50%, as compared to the controls.

mice = assay: Acute toxicity in mice; settings: oral, mice, 14 days
Experimental: as §1

[3] = 0.75 h, After Forty-five Minutes

| SMILES | ED100 (heat pain of the mouse) [mg/kg] | ED (-1.5 C) [1] [mg/kg] | LD50 at 336 h (Acute toxicity in mice) [mg/kg] | ED50 [2, 3] [mg/kg] | ED50 ([2]; 1.5 h, After Ninety Minutes) [mg/kg] | animals died after administration of this dose (mice; 8000 mg/kg (footnote ** of Table 5)) | survival of animals after administration of this dose (mice; 10000 mg/kg (footnote * of Table 5)) |
| --- | --- | --- | --- | --- | --- | --- | --- |
| Cc1ccc2sc(=O)[nH]c2c1 [G, 5-methyl-benzothiazol-2(3H)-one] | 178 | 37 | 2650 | 103 | 97 | – | – |
| Cc1cccc2sc(=O)[nH]c12 [F, 4-methyl-benzothiazol-2(3H)-one] | 113 | 118 | 8000 | 174 | 202 | 4 out of 20 animals died | – |
| O=c1[nH]c2cccc(Cl)c2s1 [C, 7-chloro-benzothiazol-2(3H)-one] | – | – | 10000 | 106 | 105 | – | all 10 animals survived |
| O=c1[nH]c2ccc(Cl)cc2s1 [D, 6-chloro-benzothiazol-2(3H)-one] | – | 103 | – | 175 | 129 | – | – |
| O=c1[nH]c2ccc(F)cc2s1 [B, 6-fluoro-benzothiazol-2(3H)-one] | 165 | 83 | 1650 | 121 | 76 | – | – |
| COc1cc2[nH]c(=O)sc2cc1OC [E, 5,6-dimethoxy-benzothiazol-2(3H)-one] | 92 | 29 | – | 43 | 40 | – | – |
| COc1ccc2sc(=O)[nH]c2c1 [A, 5-methoxy-benzothiazol-2(3H)-one] | 218 | 58 | 1600 | 90 | 150 | – | – |
| O=c1[nH]c2c(Cl)cccc2s1 [H, 4-chloro-benzothiazol-2(3H)-one] | 125 | 16 | – | 24 | 23 | – | – |
